Consider eight compounds from publication PMC4832229 (Scientific Reports, 2016).

Read-outs that look alike come from different tables or passages of the source.

Test [1] has as its system MDA-MB-231 breast cancer cells. Description: Cell rounding assay in MDA-MB-231 cells (endogenous S1P2). In kind it is cell-based. The following applies: for cell rounding response: serum-starved MDA-MB-231 cells, S1P 1 μM. Here is the method: Cell rounding was performed essentially as described. […] After 15 min, the cells were fixed and stained with fluorescein phalloidin and DAPI for cell morphology. The number of cells with retracted neurites and the number of total cells were counted in three separate fields for each sample, and the percentage of cells with retracted neurites was calculated.

The subject of test [2] is ROS in C6 cells. Description: ROS assay (CellROX) in C6 cells. In kind it is cell-based, rat. The following applies: for effect on CYM-5478-mediated attenuation of cisplatin-induced ROS: cisplatin + CYM-5478; for effect on cisplatin-induced ROS: co-administered with cisplatin, CYM-5478 10 μM. Here is the method:
Cells were plated in clear-bottom, black-walled 96-well plates at ~50% confluence, incubated overnight, then treated overnight with cisplatin in the presence of the indicated compounds. All conditions were vehicle-controlled (0.1% DMSO). […] Cells were photographed with a 20X objective lens, 3 fields per well, 3 wells per condition. Quantification was performed using ImageJ software, but dividing the total integrated density of CellROX® labelling by the number of cells per Hoechst staining.

Test [3] has as its system C6 rat glioma cells. Description: Viability assay (MTT) in C6 cells. Conditions: for EC50: vehicle. In kind it is cell-based. Here is the method: Cell viability was determined by 3-(4,5-dimethylthiazol-2-yl)-2,5-diphenyltetrazolium bromide (MTT) assay as described. Briefly, C6 cells were seeded into 96-well plates at 20,000 cells/well, incubated overnight, serum-starved for 4 h, and treated for 72 hours with cisplatin in the presence of CYM-5478 or vehicle.

The target in test [4] is T1, S1P1-EGFP (Homo sapiens, UniProt P21453).
T1 construct: expressed in transfected cells
Description: Receptor internalization assay, S1P1-EGFP. In kind it is cell-based. Conditions: 1 μM ligand.

The target of test [5] is T2, S1P2-EGFP (Homo sapiens, UniProt O95136).
T2 construct: expressed in transfected cells
Description: Receptor internalization assay, S1P2-EGFP. In kind it is cell-based. Conditions: 1 μM ligand.

Test [6] has as its target T3, S1P2 (Homo sapiens, UniProt O95136).
T3 construct: expressed in transfected cells; host or cells: HEK293
Description: TGFα-shedding assay, S1P2. In kind it is cell-based. On the procedure:
(§1) The TGFα-shedding assay was performed essentially as described. Briefly, HEK293 cells were co-transfected with the indicated receptor expression construct and TGFα-alkaline phosphatase using Lipofectamine 2000 reagent (cat #11668019, Thermo Fisher), collected by trypsinization, washed with phosphate-buffered saline, and seeded into 96-well plates in Hank’s Balanced Saline Solution (HBSS). To improve assay sensitivity, S1P1 and S1P2 cells were co-transfected with Gαq/i1 chimeric protein, and S1P4 and S1P5 were co-transfected with Gαq/16, as previously described. Cells were stimulated with ligand for 1 hour, then alkaline phosphatase activity was detected in cells and in the supernatant. Receptor activity (% shedding) was defined as alkaline phosphatase activity of the supernatant/total alkaline phosphatase activity (cells + supernatant). Data processing and statistical analyses were performed with GraphPad Prism 6.

The target of test [7] is T4, S1P4 (Homo sapiens, UniProt O95977).
T4 construct: expressed in transfected cells; host or cells: HEK293
T4 sequence (O95977 1-384): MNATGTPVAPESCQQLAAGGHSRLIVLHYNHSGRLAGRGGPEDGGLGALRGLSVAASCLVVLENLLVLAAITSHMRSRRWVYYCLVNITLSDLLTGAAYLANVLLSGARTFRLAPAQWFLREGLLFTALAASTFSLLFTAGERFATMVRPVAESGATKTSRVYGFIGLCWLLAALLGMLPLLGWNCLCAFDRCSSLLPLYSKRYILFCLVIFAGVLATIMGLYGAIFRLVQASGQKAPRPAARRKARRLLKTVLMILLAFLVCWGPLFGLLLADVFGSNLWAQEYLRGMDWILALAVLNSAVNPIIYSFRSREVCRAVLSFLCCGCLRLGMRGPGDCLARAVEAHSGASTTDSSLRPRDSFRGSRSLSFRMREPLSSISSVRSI
Description: TGFα-shedding assay, S1P4. In kind it is cell-based. Conditions: for EC50: HEK293 cells, ligand 1 hour. On the procedure:
as §1

Test [8] concerns NOX3 complex (Nox3, NoxO1, NoxA1). Description: NOX3 activity assay (luminol) in transfected HEK293 cells. In kind it is cell-based. The following applies: HEK293, S1P 1 μM, 15 minutes. Here is the method: NOX3 activity was determined as previously described. […] Indicated values were taken 15 minutes following stimulation.
In test [9] the target is T5, S1P1 (Homo sapiens, UniProt P21453).
T5 construct: expressed in transfected cells; host or cells: HEK293
Description: TGFα-shedding assay, S1P1. In kind it is cell-based. The following applies: for EC50: HEK293 cells, ligand 1 hour. On the procedure:
as §1

The target in test [10] is T6, S1P5 (Homo sapiens, UniProt Q9H228).
T6 construct: expressed in transfected cells; host or cells: HEK293
Description: TGFα-shedding assay, S1P5. In kind it is cell-based. Here is the method:
as §1

The target of test [11] is T7, S1P3-EGFP (Homo sapiens, UniProt Q99500).
T7 construct: expressed in transfected cells
Description: Receptor internalization assay, S1P3-EGFP. In kind it is cell-based. Conditions: 1 μM ligand.

Test [12] concerns the target T8, S1P3 (Homo sapiens, UniProt Q99500).
T8 construct: expressed in transfected cells; host or cells: HEK293
Description: TGFα-shedding assay, S1P3. In kind it is cell-based. The following applies: for EC50: HEK293 cells, ligand 1 hour. On the procedure:
as §1

Test [13] relates to caspase 3/7 activity in C6 cells. Description: Caspase-Glo 3/7 assay in C6 cells. In kind it is cell-based, rat. On the procedure: Cells were plated in clear-bottom, black-walled 96-well plates at ~50% confluence, incubated overnight, then treated overnight with cisplatin in the presence of vehicle or 10 μM CYM-5478. Caspase activation was evaluated by Caspase-Glo 3/7 Assay System (Promega Corporation) per manufacturer’s instructions.

In test [14] the target is T3, S1P2. The following applies: cited from earlier work.
Test [15] concerns C6 cells. Description: Cell death assay (propidium iodide exclusion) in C6 cells. In kind it is cell-based, rat. Here is the method: Cell death was evaluated by propidium iodide exclusion assay. Cells were plated in 96-well plates at ~50% confluence, incubated overnight, then treated with cisplatin (67 μM) for 24 hours in the presence of vehicle or 10 μM CYM-5478. Cell were treated with Hoechst 33342 (1 mg/ml) and propidium iodide (0.3 mg/ml) for 20 minutes, washed with phosphate-buffered saline, then rapidly photographed with a Cytation 3 automated imager (Biotek Instruments, Inc.). % cell death reflects a ratio of propidium iodide-positive and Hoechst 33342-positive cells.

In test [16] the test system is other S1P receptor subtypes. Description: TGFα-shedding assay, other S1P receptor subtypes (summary statement). In kind it is cell-based. The following applies: subtypes other than S1P2. Here is the method: as §1

T8 sequence (Q99500 whole entry, species assumed): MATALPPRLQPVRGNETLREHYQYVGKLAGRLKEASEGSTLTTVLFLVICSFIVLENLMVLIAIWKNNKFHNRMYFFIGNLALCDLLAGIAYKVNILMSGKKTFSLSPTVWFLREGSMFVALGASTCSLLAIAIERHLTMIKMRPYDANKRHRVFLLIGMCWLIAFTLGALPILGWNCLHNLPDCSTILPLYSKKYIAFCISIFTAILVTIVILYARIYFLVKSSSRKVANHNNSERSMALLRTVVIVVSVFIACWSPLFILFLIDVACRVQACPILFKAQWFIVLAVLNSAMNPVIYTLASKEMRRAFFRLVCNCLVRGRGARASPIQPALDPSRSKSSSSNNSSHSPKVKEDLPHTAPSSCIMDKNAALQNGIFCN
T3 sequence (O95136 whole entry, species assumed): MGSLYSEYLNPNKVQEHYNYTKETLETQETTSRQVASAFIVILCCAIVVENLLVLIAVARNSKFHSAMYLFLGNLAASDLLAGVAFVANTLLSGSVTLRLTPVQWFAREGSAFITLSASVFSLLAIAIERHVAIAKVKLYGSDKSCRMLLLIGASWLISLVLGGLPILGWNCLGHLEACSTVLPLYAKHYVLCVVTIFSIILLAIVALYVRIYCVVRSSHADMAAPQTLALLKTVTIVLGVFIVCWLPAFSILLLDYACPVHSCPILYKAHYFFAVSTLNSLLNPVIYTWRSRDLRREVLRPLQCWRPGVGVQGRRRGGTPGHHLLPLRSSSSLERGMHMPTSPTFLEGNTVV
T5 sequence (P21453 whole entry, species assumed): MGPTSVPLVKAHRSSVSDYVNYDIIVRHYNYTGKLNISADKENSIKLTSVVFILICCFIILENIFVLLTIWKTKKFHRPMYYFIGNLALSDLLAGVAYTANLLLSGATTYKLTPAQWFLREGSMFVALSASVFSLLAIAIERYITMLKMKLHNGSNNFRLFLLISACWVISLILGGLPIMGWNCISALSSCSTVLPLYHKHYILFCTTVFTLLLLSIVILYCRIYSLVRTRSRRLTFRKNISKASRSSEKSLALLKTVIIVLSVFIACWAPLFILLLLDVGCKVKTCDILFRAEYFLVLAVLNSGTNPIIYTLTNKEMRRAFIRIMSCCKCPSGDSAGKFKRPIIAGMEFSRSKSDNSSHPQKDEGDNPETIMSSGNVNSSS
T2 sequence (O95136 whole entry): as the sequence (O95136 whole entry, species assumed) above
T6 sequence (Q9H228 whole entry, species assumed): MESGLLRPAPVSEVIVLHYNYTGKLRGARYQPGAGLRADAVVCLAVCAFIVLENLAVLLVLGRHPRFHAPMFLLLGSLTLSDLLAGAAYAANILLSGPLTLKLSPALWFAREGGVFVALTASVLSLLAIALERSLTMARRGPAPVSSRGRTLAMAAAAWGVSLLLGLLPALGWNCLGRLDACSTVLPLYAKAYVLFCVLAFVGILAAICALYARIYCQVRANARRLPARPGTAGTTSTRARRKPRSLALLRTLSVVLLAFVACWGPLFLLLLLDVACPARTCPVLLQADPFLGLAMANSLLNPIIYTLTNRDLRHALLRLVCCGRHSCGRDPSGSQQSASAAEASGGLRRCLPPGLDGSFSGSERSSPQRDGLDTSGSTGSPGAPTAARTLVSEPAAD
T7 sequence (Q99500 whole entry): as the sequence (Q99500 whole entry, species assumed) above
T1 sequence (P21453 whole entry): as the sequence (P21453 whole entry, species assumed) above

For the compound JTE-013, the “effect of pre-treatment on CYM-5478-induced cell rounding” value in test [1] (pre-treatment 15 minutes before CYM-5478) is reported as “similarly abrogated”. Moreover, the “effect of pre-treatment on S1P-induced cell rounding” value in test [1] (pre-treatment 15 minutes before S1P (1 μM)) was “completely abrogated”. In [2], the “effect on CYM-5478-mediated attenuation of cisplatin-induced ROS” value was “complete attenuation of CYM-5478 activity” and the “effect on cisplatin-induced ROS” value is listed as “no effect on cisplatin-induced ROS”.

For orientation: EC50 means the concentration giving half of the maximal effect. In the case of `OO` [H2O2, hydrogen peroxide], in test [3] (C6 cells, read-out: EC50 of hydrogen peroxide, + vehicle), the EC50 was 1860 nM.

For orientation: Emax means the size of the effect at its maximum, as opposed to the concentration needed. With `CCCCCCCCCCCCC/C=C/[C@@H](O)[C@@H](N)COP(=O)(O)O` [S1P, sphingosine 1-phosphate], the “internalization of S1P1-EGFP” value in [4] is reported as “largely internalized to cytoplasmic vesicles”. Further, the “internalization of S1P2-EGFP” value in test [5] was “largely internalized to cytoplasmic vesicles”. Besides, the Emax in [6], in test [7], in test [10] and in test [12] was 100% throughout. For the same compound, the EC50 in test [7] was 175 nM; in [9] it was 115 nM; in test [12], 55.4 nM. Further, the “S1P-dependent reduction of NOX3 ROS, co-transfected S1P1” value in test [8] was “not observed”. The “S1P-dependent reduction of NOX3 ROS, co-transfected S1P3” value in [8] is “not observed”. The “effect on NOX3 ROS generation, co-transfected S1P2” value in [8] is reported as “further attenuated”. Further, the cell rounding response result in test [1] is “pronounced cytoskeletal rearrangement characterized by process retraction and cell rounding”. In test [11], the “internalization of S1P3-EGFP” value is given as “largely internalized to cytoplasmic vesicles”.

On to `Cc1cc(C(=O)Cn2cc(C(F)(F)F)ccc2=O)c(C)n1Cc1ccccc1` [CYM-5478], for which the “effect on cisplatin-induced caspase 3/7 activity” value in [13] (co-administration of 10 μM CYM-5478) is recorded as “markedly attenuated”. Moreover, the EC50 in test [14] (Scripps Research Institute Molecular Screening Center HTS, ref http://pubchem.ncbi.nlm.nih.gov/assay/assay.cgi?aid=872, read-out: EC50 in the original screen) was 723 nM; in [14] (read-out: EC50 in subsequent validation studies) it was 780 nM; in test [6] (HEK293 cells, ligand 1 hour), 119 nM; in test [7], more than 10000 nM; in test [9] it was 1690 nM; in test [10] (HEK293 cells, ligand 1 hour), more than 10000 nM. Besides, the EC50 in [12] is 1950 nM. Further, in test [5], the “internalization of S1P2-EGFP” value is listed as “induced the internalization of S1P2-EGFP”. Besides, the “S1P2 Emax” value in [6] (relative to S1P) is on record as 99.5%. In addition, the “effect on cisplatin-induced increase in propidium iodide-positive cells” value in test [15] (co-administration of 10 μM CYM-5478 with cisplatin 67 μM, 24 hours) is reported as “attenuated”. Also, the “change in propidium iodide-positive cells, treatment alone” value in test [15] (without cisplatin) was “no significant change”. Besides, the cell rounding response result in test [1] is given as “identical rounding response”. The “S1P1 Emax” value in [9] (relative to S1P) was 24.2%. Further, the “effect on cisplatin-induced ROS” value in test [2] was “significantly attenuated”. Moreover, in test [3] (C6 cells, 10 μM CYM-5478), the “increase in EC50 of cisplatin conferred by co-administration” value is on record as 3 fold. In addition, the “increase in viability in the presence of 10% fetal bovine serum” value in test [3] (C6 cells, 10% fetal bovine serum (data not shown)) is reported as “absent”. Also, in [3] (C6 cells, vs vehicle-treated), the “effect on EC50 of cisplatin in the presence of 1 mM N-acetylcysteine” value is listed as “no significant difference”. Moreover, in test [3] (presence vs absence of CYM-5478), the “protection of C6 cells from exogenously administered ROS (hydrogen peroxide)” value is “equally sensitive”. Also, the “concentrations giving statistically significant, dose dependent increase in viability” value in test [3] (serum-starved C6 cells, MTT) is “above 100 nM”. Moreover, the “efficacy against the other S1P receptor subtypes” value in test [16] is recorded as “less than 25%”. The “lower potency against the other S1P receptor subtypes vs S1P2” value in test [16] came out at 10 fold. Also, the “S1P3 Emax” value in [12] (relative to S1P) was determined as 20.8%.

Consider `c1ccc2c(c1)[I+]c1ccccc1-2` [DPI, diphenyleneiodonium], for which, in test [2], the “effect on cisplatin-induced ROS” value is on record as “phenocopied”.

`CCN(CC)CCCC(C)Nc1nc(C)cc(Nc2ccc3nc(C)cc(N)c3c2)n1` (centres unmarked) [NSC23766]: the “effect on cisplatin-induced ROS” value in test [2] was “phenocopied”.

On to `C[C@@H](N)[C@H]1CC[C@H](C(=O)Nc2ccncc2)CC1` [Y-27632], for which, in [2], the “effect on CYM-5478-mediated attenuation of cisplatin-induced ROS” value is given as “complete attenuation of CYM-5478 activity” and the “effect on cisplatin-induced ROS” value is “no effect on cisplatin-induced ROS”.

Regarding `N.N.[Cl][Pt][Cl]` [Cisplatin, cis-Diammineplatinum(II) dichloride], the “caspase 3/7 activity” value in test [13] (overnight) is “significant increase in caspase 3/7 activity”. Moreover, the “increase in propidium iodide-positive cells” value in test [15] (cisplatin 67 μM, 24 hours) is recorded as more than 3 fold. Also, the “ROS accumulation (CellROX fluorescence)” value in test [2] (cisplatin 20 μM, 24 hours) is on record as “increase in ROS”. In addition, in test [3] (C6 cells, 72 hours, MTT, read-out: EC50 of cisplatin-mediated reduction in viability, + vehicle), the EC50 is 1340 nM.
